Assay results published in PubChem BioAssay (NCI).
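Protocol summary: plate cells (96-well), add compound at 5 concentrations, incubate 48 h, interpolate endpoints linearly. GI50 is the concentration that inhibits growth by half. TGI is the concentration that stops growth completely.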

Legend:
Test in all cases: NCI anticancer screen, dose series, 48 h
HOP-62 NSCLC = tested on: HOP-62 NSCLC
UO-31 renal = tested on: UO-31 renal
COLO 205 colon = tested on: COLO 205 colon
CAKI-1 renal = tested on: CAKI-1 renal
NCI-H226 lung = tested on: NCI-H226 lung
NCI-H460 lung = tested on: NCI-H460 lung
KM12 colon = tested on: KM12 colon
DU-145 prostate = tested on: DU-145 prostate
OVCAR-4 ovarian = tested on: OVCAR-4 ovarian
T-47D breast = tested on: T-47D breast

Structure (SMILES)	GI50 (HOP-62 NSCLC) [µM]	TGI (HOP-62 NSCLC) [µM]	GI50 (UO-31 renal) [µM]	TGI (UO-31 renal) [µM]	GI50 (COLO 205 colon) [µM]	TGI (COLO 205 colon) [µM]	GI50 (CAKI-1 renal) [µM]	TGI (CAKI-1 renal) [µM]	GI50 (NCI-H226 lung) [µM]	TGI (NCI-H226 lung) [µM]	GI50 (NCI-H460 lung) [µM]	TGI (NCI-H460 lung) [µM]	GI50 (KM12 colon) [µM]	TGI (KM12 colon) [µM]	GI50 (DU-145 prostate) [µM]	TGI (DU-145 prostate) [µM]	GI50 (OVCAR-4 ovarian) [µM]	TGI (OVCAR-4 ovarian) [µM]	GI50 (T-47D breast) [µM]	TGI (T-47D breast) [µM]
COc1ccc([C@H]2c3cc(OC)c(OC)cc3C=C(C=O)C2CO)cc1OC (stereo partly specified)	4.79	> 100	3.6	> 100	3.91	17.9	3.02	> 100	> 100	> 100	3.51	> 100	2.9	43.6	3.51	21.8	7.94	> 100	–	–
COC1OC(OC)C2C(c3c(C)cc(C)cc3C)=NOC12 (stereo unspecified)	–	> 100	–	> 100	–	> 100	–	> 100	–	> 100	–	> 100	–	> 100	–	–	–	> 100	–	–
COc1ccc(C(=O)O/N=C2\CCCC\C2=C/c2ccccc2)cc1	–	> 100	–	> 100	–	> 100	–	> 100	–	–	–	> 100	–	–	–	–	–	95.8	–	–
CC/C(=C(\c1ccccc1)c1ccc(OCCN(C)C)cc1)c1ccccc1	–	–	5.73	–	0.892	–	3.42	–	–	–	–	–	2.55	–	–	–	–	–	0.805	–
COc1ccc(NC(=O)CC/C(CC(=O)c2ccco2)=N/Nc2ccc([N+](=O)[O-])cc2[N+](=O)[O-])cc1	–	> 100	–	> 100	–	> 100	–	> 100	–	> 100	–	> 100	–	> 100	–	–	–	> 100	–	–
CCOC(=O)c1cc2c(n1Cc1cccc(OC)c1)-c1oncc1CC2	0.86	> 100	1.91	78.5	0.508	3.99	–	–	7.46	> 100	0.511	> 100	0.55	> 100	2.27	> 100	9.6	> 100	0.61	97.2
C1=C[C@@H]2c3ccc4cnccc4c3NC[C@@H]2C1	–	> 100	–	> 100	–	> 100	–	–	–	> 100	–	> 100	–	> 100	–	> 100	–	–	–	> 100
COC(=O)C1=Cc2cc3c(cc2[C@H](c2ccc4c(c2)OCO4)C1C(=O)OC)OCO3 (stereo partly specified)	–	> 100	–	> 100	–	> 100	–	> 100	–	> 100	–	> 100	–	> 100	–	–	–	> 100	–	–
CCCCN(CCCC)C(=Nc1ccccc1)N(CCCC)CCCC	–	20.5	–	14.3	–	14	–	–	–	–	–	19.1	–	22.6	–	–	–	–	–	–
CC(C)NC(=O)OCc1nnn2c1C(OC(=O)NC(C)C)CC2 (stereo unspecified)	–	–	–	> 100	–	> 100	–	> 100	–	> 100	–	> 100	–	> 100	–	–	–	> 100	–	–
CCOC(=O)C(C(=O)c1ccccc1-c1ccccc1C(=O)O)=P(c1ccccc1)(c1ccccc1)c1ccccc1	–	40.5	–	–	–	40.6	–	–	–	73.7	–	39	–	–	–	–	–	43.6	–	–
COC(=O)C1=CC(=O)C(C(=O)Nc2ccc(OC)cc2)C(c2ccccc2)O1 (stereo unspecified)	–	50.9	–	90.6	–	> 100	–	> 60	–	55.1	–	> 100	–	> 100	–	–	–	> 77.9	–	–
CCN(CC)CCN(C)CC(C)(C)C(=O)/C=C/c1ccccc1	–	37	–	26.2	–	26.6	–	28.7	–	32.4	–	20.3	–	25.4	–	–	–	24.3	–	–
Cn1ccnc1CCc1ccc(F)cc1F	–	> 100	–	> 100	–	> 100	–	–	–	> 100	–	> 100	–	> 100	–	> 100	–	> 100	–	> 100
COc1ccc(C2SC(N)=Nc3c2c(C)nn3C(=O)c2ccncc2)cc1 (stereo unspecified)	–	> 100	–	> 100	–	> 100	–	–	–	> 100	–	> 100	–	> 100	–	> 100	–	> 100	–	> 100
CCCCNC(=S)Nn1c(-c2ccccc2)nc2ccccc2c1=O	–	> 100	–	> 100	–	> 100	–	> 100	–	> 100	–	> 100	–	> 100	–	–	–	> 100	–	–
Clc1ccc(Cl)c(N/N=C\c2c[nH]c3ccccc23)c1	15.2	28.4	3.7	18.4	14	30.4	5.43	19.6	7.99	34.3	> 100	> 100	7.45	26.3	10.7	22.6	10.7	23	–	–
CC(C)c1ccc2c(c1)CCC1C(C)(C)[C@@H](O)CC[C@]21C (stereo partly specified)	–	37.4	–	> 100	–	32.9	–	> 100	–	38.5	–	41.4	–	71.5	–	–	–	> 100	–	–

Structure (SMILES)	GI50 (HOP-62 NSCLC) [µM]	TGI (HOP-62 NSCLC) [µM]	GI50 (UO-31 renal) [µM]	TGI (UO-31 renal) [µM]	GI50 (COLO 205 colon) [µM]	TGI (COLO 205 colon) [µM]	GI50 (CAKI-1 renal) [µM]	TGI (CAKI-1 renal) [µM]	GI50 (NCI-H226 lung) [µM]	TGI (NCI-H226 lung) [µM]	GI50 (NCI-H460 lung) [µM]	TGI (NCI-H460 lung) [µM]	GI50 (KM12 colon) [µM]	TGI (KM12 colon) [µM]	GI50 (DU-145 prostate) [µM]	TGI (DU-145 prostate) [µM]	GI50 (OVCAR-4 ovarian) [µM]	TGI (OVCAR-4 ovarian) [µM]	GI50 (T-47D breast) [µM]	TGI (T-47D breast) [µM]
CN(C)C1(C#N)CCC2(CC1)OCCO2	–	> 100	–	> 100	–	> 100	–	> 100	–	> 100	–	> 100	–	> 100	–	–	–	> 100	–	–
c1ccc([CH2][Sn]([CH2]c2ccccc2)([S]c2cccc3cccnc23)[S]c2cccc3cccnc23)cc1	0.764	6.94	0.187	0.399	0.0801	0.366	0.42	1.02	–	–	0.273	1.01	–	–	–	–	0.172	0.422	–	–
COC(=O)C(=O)C(C#N)c1cccc2ccccc12 (stereo unspecified)	–	> 100	–	> 100	–	> 100	–	> 100	–	> 100	–	–	–	99.7	–	–	–	> 100	–	–
CCc1ccc(Cc2ccc(CC)c(NC(=O)C(=O)Cc3nc4ccccc4nc3C)c2CC)c(CC)c1NC(=O)C(=O)Cc1nc2ccccc2nc1C	–	> 100	–	72.8	–	> 100	–	> 100	–	–	–	> 100	–	> 100	–	–	–	> 100	–	–
N#Cc1c([N+](=O)[O-])cc(C(F)(F)F)cc1[N+](=O)[O-]	–	32.8	–	33.5	–	14.8	–	8.94	–	37.3	–	40.3	–	12.4	–	–	–	5.57	–	–
O=c1[nH]nc(-c2ccccc2)c(-c2ccccc2)c1-n1nc(-c2ccccc2)c2ccccc2c1=O	–	> 100	–	> 100	–	> 100	–	> 100	–	> 100	–	> 100	–	> 100	–	–	–	> 100	–	–
O=C(c1ccccc1)c1nnn(Cc2cccc(Cl)c2)c1C(=O)c1ccccc1	–	> 100	–	> 100	–	38.8	–	> 100	–	> 100	–	> 100	–	> 100	–	–	–	> 100	–	–
Cc1ccc(S(=O)(=O)NCCCN(CCCNS(=O)(=O)c2ccc(C)cc2)S(=O)(=O)c2ccc(C)cc2)cc1	–	> 100	–	> 100	–	> 100	–	–	–	> 100	–	> 100	–	> 100	–	–	–	–	–	–
C=CCCc1cc(OC)ccc1CN(C)C(C)(C)CO	–	> 100	–	–	–	> 100	–	> 100	–	–	–	> 100	–	> 100	–	–	–	> 100	–	–
CC(=O)NNc1nc(C)c(C(/C=C/c2ccc(/C=C/C(=N\NC(=O)c3ccncc3)c3sc(NNC(C)=O)nc3C)cc2)=N/NC(=O)c2ccncc2)s1	–	> 100	–	> 100	–	> 100	–	> 100	–	> 100	–	> 100	–	> 100	–	–	–	–	–	–
[N-]=[N+]=Nc1ccc(S(=O)(=O)Oc2cc(OS(=O)(=O)c3ccc(N=[N+]=[N-])cc3)cc(OS(=O)(=O)c3ccc(N=[N+]=[N-])cc3)c2)cc1	–	> 100	–	> 100	–	> 10	–	> 10	–	> 10	–	> 100	–	> 100	–	–	–	> 10	–	–
COC(=O)C1=C(O)C(O)=C(C(=O)OC)CC1	–	> 100	–	> 100	–	> 100	–	> 100	–	> 100	–	> 100	–	> 100	–	–	–	> 100	–	–
COc1ccc(CN(O)C2C(CO)OC(n3cc(I)c(=O)[nH]c3=O)C2O)cc1 (stereo unspecified)	–	> 100	–	> 100	–	> 100	–	> 100	–	–	–	> 100	–	> 100	–	–	–	> 100	–	–
C=C1C(=O)OC2C1C(OC(=O)/C(=C/C)COC(C)=O)CC1(CO1)C1C(OC(=O)/C(=C/C)CO)C=C(C)C21 (stereo unspecified)	–	–	–	11.2	–	2.3	–	2.13	–	4.18	–	28.3	–	15.3	–	–	–	7.53	–	–
CCS[C@H]1NC(=O)C1[C@H](C)O[Si](C)(C)C(C)(C)C (stereo partly specified)	–	> 100	–	–	–	> 100	–	> 100	–	–	–	> 100	–	> 100	–	–	–	> 100	–	–
O=C(CC(O)(c1ccccc1)c1ccc(Cl)cc1)NC(=O)c1ccccc1O (stereo unspecified)	–	25.6	–	6.75	–	27.5	–	23.2	–	29.8	–	26.7	–	21.9	–	–	–	> 100	–	–
Cc1c(C(=O)/C=C/c2ccco2)[n+](=O)c2ccccc2n1[O-]	–	–	–	> 100	–	> 100	–	> 100	–	> 100	–	> 100	–	> 100	–	–	–	–	–	–
